Test: xn = mol fraction of the nth substance listed
Settings: 102.2 kPa, Liquid, Vibrating tube method

C[Si](C)(O[Si](C)(C)c1ccccc1)c1ccccc1 [1,3-diphenyltetramethyldisiloxane] + C=C[Si]1(C)O[Si](C)(C=C)O[Si](C)(C=C)O[Si](C)(C=C)O1
mass density [kg/m3]
Settings	308.15 K	313.15 K	318.15 K	323.15 K	328.15 K
x1 = 0.0511	972.67	967.57	962.46	957.29	952.25
x1 = 0.1004	972.68	967.63	962.58	957.53	952.52
x1 = 0.1503	972.67	967.67	962.67	957.67	952.66
x1 = 0.2	972.66	967.72	962.77	957.83	952.88
x1 = 0.2537	972.63	967.74	962.86	957.97	953.1
x1 = 0.3001	972.56	967.72	962.9	958.06	953.26
x1 = 0.3507	972.42	967.63	962.84	958.04	953.25
x1 = 0.4002	972.3	967.56	962.83	958.06	953.33
x1 = 0.4503	972.13	967.44	962.77	958.08	953.42
x1 = 0.4999	971.87	967.23	962.58	957.92	953.25
x1 = 0.5501	971.69	967.12	962.54	957.94	953.39
x1 = 0.597	971.42	966.89	962.34	957.8	953.24
x1 = 0.6498	971.17	966.7	962.23	957.76	953.3
x1 = 0.7005	970.8	966.35	961.92	957.49	953.06
x1 = 0.7492	970.45	966.08	961.71	957.33	952.96
x1 = 0.8001	970.05	965.73	961.41	957.09	952.78
x1 = 0.8497	969.63	965.36	961.11	956.85	952.59
x1 = 0.8999	969.05	964.82	960.59	956.35	952.09
x1 = 0.9502	968.57	964.4	960.23	956.03	951.87
x1 = 1	968.05	963.94	959.84	955.74	951.65
